The text below walks through data of ChEMBL document CHEMBL1135087, “Synthesis and biological evaluation of novel thio-substituted chromanes as high-affinity partial agonists for the estrogen receptor” (Bioorg Med Chem Lett, 2002).

Structures are written as SMILES.

For one assay, the system named is Ishikawa. Briefly: cells. The conditions noted are these: Homo sapiens.
Assay [1] addresses T1, Estrogen receptor (Homo sapiens, UniProt Q92731+P03372). As to the kind of experiment: Displacement of [3H]17-beta-estradiol from Estrogen receptor of rabbit uterine tissue. The conditions noted are these: target entry is the homologue from another species. Type of assay: protein assay, Oryctolagus cuniculus.
Assay [2] deals with T1, Estrogen receptor.

Description for Ishikawa: Stimulation of alkaline phosphatase activity in Ishikawa human endometrial adenocarcinoma cells

In the assay on Ishikawa, `C#C[C@]1(O)CC[C@H]2C3CCc4cc(O)ccc4[C@H]3[C@@H](OC)C[C@@]21C` (single isomer, unassigned) [MOXESTROL] came in with an EC50 of 0.08 nM. The IC50 at Estrogen receptor [1] was 2.9 nM.

For the compound `Oc1ccc2c(c1)OC[C@H](c1ccccc1)[C@@H]2c1ccc(OCCN2CCCC2)cc1` (racemic), the EC50 in the assay with Ishikawa worked out at 0.9 nM. The compound also displayed an IC50 against Estrogen receptor [2] of 19 nM.

Turning to `COc1ccc2c(c1)OC(C)(C)[C@@H](c1ccccc1)[C@@H]2c1ccc(OCCN2CCCC2)cc1` [LEVORMELOXIFENE], the response with Ishikawa was half-maximal at 13 nM (EC50). The IC50 against Estrogen receptor [2] came out at 73 nM.

As for `Cl.Oc1ccc2c(c1)OC[C@H](c1ccccc1)[C@@H]2c1ccc(SCCN2CCCC2)cc1` (racemic), the EC50 in the assay with Ishikawa was 0.5 nM. Moreover, on Estrogen receptor [2], the IC50 is 6.5 nM.

In turn, `O=C(c1ccc(OCCN2CCCCC2)cc1)c1c(-c2ccc(O)cc2)sc2cc(O)ccc12` [RALOXIFENE] returned an EC50 in the assay on Ishikawa of 0.04 nM.

In the assay on Ishikawa, `Oc1ccc2c(c1)OC[C@H](c1ccccc1)[C@@H]2c1ccc(OCCN2CCCCC2)cc1` (racemic) had a 50% effective concentration (EC50) of 0.7 nM. Besides, the IC50 at Estrogen receptor [2] was 3.1 nM.

In the assay with Ishikawa, `CC/C(=C(\c1ccc(I)cc1)c1ccc(OCCN2CCCC2)cc1)c1ccccc1` [IDOXIFENE] yielded an EC50 of 7 nM. Besides, on Estrogen receptor [2], the IC50 is 7.5 nM.

`Oc1ccc2c(c1)OC[C@H](c1ccccc1)[C@@H]2c1ccc(SCCN2CCCCC2)cc1` (racemic) registered an EC50 in the assay on Ishikawa of 1.8 nM. In addition, the IC50 against Estrogen receptor [2] is 9.7 nM.
